Assay results published in ChEMBL document CHEMBL4130444, “1,4-Naphthoquinones as inhibitors of Itch, a HECT domain-E3 ligase, and tumor growth suppressors in multiple myeloma” (Eur J Med Chem, 2017).
Active and inactive are the calls of the source. The calls are words filed in the database; no cut-off is given here.

Experiments:
[1] = tested on: RPMI-8226; assay: Reduction of Itch protein expression in human RPMI8226 cells at 10 uM by Western blot; assay type: functional, cell-based
[2] = organism: Homo sapiens; assay: Inhibition of UBE1/UbcH4/MDM2/CK1d/p53 (unknown origin) assessed as protein activity at […] by electrochemiluminescence based ubiquitin profiler panel assay; set-up: scale not given: the % may be the effect or the level left
[3] = tested on: SK-MEL-5; assay: Antiproliferative activity against human SK-MEL-5 cells incubated for 48 hrs by SRB assay; assay type: functional; settings: SK-MEL-5, 48 h
[4] = tested on: ACHN; assay: Antiproliferative activity against human ACHN cells incubated for 48 hrs by SRB assay; assay type: functional
[5] = organism: Homo sapiens; assay: Inhibition of UBE1/UbcH3/SCFbTrCP1/b-catenin (unknown origin) assessed as protein activity at […] by electrochemiluminescence based ubiquitin profiler panel assay; set-up: scale not given: the % may be the effect or the level left
[6] = tested on: HepG2; assay: Antiproliferative activity against human HepG2 cells incubated for 48 hrs by SRB assay; assay type: functional; settings: HepG2, 48 h
[7] = Antiproliferative activity against human hepatocytes incubated for 48 hrs by SRB assay; assay type: cell-based, Hepatocyte
[8] = tested on: A549; assay: Antiproliferative activity against human A549 cells incubated for 48 hrs by SRB assay; assay type: functional; settings: A549, 48 h
[9] = organism: Homo sapiens; assay: Inhibition of UBE1/UbcH7/Parkin/Parkin(Auto) (unknown origin) assessed as protein activity at […] by electrochemiluminescence based ubiquitin profiler panel assay; set-up: scale not given: the % may be the effect or the level left
[10] = organism: Homo sapiens; assay: Inhibition of UBE1/UbcH4/MDM2/MDM2(Auto) (unknown origin) assessed as protein activity at […] by electrochemiluminescence based ubiquitin profiler panel assay; set-up: scale not given: the % may be the effect or the level left
[11] = tested on: Ramos; assay: Antiproliferative activity against human Ramos cells incubated for 48 hrs by SRB assay; assay type: functional
[12] = tested on: Hep 3B2; assay: Antiproliferative activity against human Hep3B cells incubated for 48 hrs by SRB assay; assay type: functional
[13] = tested on: RPMI-8226; assay: Antitumor activity against human RPMI8226 cells xenografted in SCID nude mouse assessed as inhibition of tumor growth at 50 mg/kg, po dosed daily for 45 days; assay type: functional; settings: RPMI-8226, po, 1080 h, read-out: TGI
[14] = biological target: E3 ubiquitin-protein ligase Itchy homolog (Homo sapiens) (UniProt Q96J02); assay: Inhibition of Itch (unknown origin) assessed as reduction in Itch-mediated ubiquitination in presence of E1 enzyme, E2 enzyme and ATP incubated for 20 mins by SDS-PAGE method
Sequence of E3 ubiquitin-protein ligase Itchy homolog (Homo sapiens) (Q96J02 whole entry): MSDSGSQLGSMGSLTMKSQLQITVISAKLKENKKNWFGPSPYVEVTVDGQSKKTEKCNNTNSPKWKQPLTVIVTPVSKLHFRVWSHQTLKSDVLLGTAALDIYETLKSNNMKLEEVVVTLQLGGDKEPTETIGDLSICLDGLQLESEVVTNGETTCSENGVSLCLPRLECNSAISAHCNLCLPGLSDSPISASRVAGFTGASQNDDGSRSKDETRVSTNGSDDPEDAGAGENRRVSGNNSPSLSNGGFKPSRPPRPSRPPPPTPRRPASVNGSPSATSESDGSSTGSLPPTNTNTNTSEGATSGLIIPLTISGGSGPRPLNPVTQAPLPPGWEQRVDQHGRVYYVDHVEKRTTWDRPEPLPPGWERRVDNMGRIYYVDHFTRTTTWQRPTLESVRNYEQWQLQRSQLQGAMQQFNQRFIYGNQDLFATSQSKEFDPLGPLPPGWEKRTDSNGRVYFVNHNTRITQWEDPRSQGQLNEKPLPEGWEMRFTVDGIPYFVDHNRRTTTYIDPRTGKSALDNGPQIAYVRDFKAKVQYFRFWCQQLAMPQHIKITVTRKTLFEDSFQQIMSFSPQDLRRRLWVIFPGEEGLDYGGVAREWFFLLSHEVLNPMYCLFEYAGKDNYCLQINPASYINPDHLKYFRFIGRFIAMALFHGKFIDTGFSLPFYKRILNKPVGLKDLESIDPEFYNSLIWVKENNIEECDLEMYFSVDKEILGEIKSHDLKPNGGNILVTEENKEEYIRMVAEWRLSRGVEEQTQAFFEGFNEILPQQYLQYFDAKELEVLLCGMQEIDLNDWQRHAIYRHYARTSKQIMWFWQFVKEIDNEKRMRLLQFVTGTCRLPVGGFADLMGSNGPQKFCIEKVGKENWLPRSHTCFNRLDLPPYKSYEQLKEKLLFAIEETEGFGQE

[15] = tested on: OVCAR-4; assay: Antiproliferative activity against human OVCAR4 cells incubated for 48 hrs by SRB assay; assay type: functional; settings: OVCAR-4, 48 h
[16] = organism: Homo sapiens; assay: Inhibition of UBE1/UbcH5a/VHL/HIF-1a (unknown origin) assessed as protein activity at […] by electrochemiluminescence based ubiquitin profiler panel assay; set-up: scale not given: the % may be the effect or the level left
[17] = organism: Homo sapiens; assay: Inhibition of UBE1/UbcH4/c-Cbl/Kit (unknown origin) assessed as protein activity at […] by electrochemiluminescence based ubiquitin profiler panel assay; set-up: scale not given: the % may be the effect or the level left
[18] = tested on: A498; assay: Antiproliferative activity against human A498 cells incubated for 48 hrs by SRB assay; assay type: functional; settings: A498, 48 h
[19] = tested on: MDA-MB-231; assay: Antiproliferative activity against human MDA-MB-231 cells incubated for 48 hrs by SRB assay; assay type: functional; settings: MDA-MB-231, 48 h
[20] = organism: Homo sapiens; assay: Inhibition of UBE1/UbcH5a/SCFFbw7/Cyclin E1 (unknown origin) assessed as protein activity at […] by electrochemiluminescence based ubiquitin profiler panel assay; set-up: scale not given: the % may be the effect or the level left
[21] = tested on: K562; assay: Antiproliferative activity against human K562 cells incubated for 48 hrs by SRB assay; assay type: functional; settings: K562, 48 h
[22] = tested on: REH; assay: Antiproliferative activity against human REH cells incubated for 48 hrs by SRB assay; assay type: functional
[23] = Antiproliferative activity against NHDF incubated for 48 hrs by SRB assay; assay type: cell-based; settings: human, NHDF cells
[24] = Antiproliferative activity against HUVEC incubated for 48 hrs by SRB assay; assay type: cell-based; settings: human, HUVEC cells
[25] = organism: Homo sapiens; assay: Inhibition of UBE1/UbcH5c/MDM2/MDM2(Auto) (unknown origin) assessed as protein activity at […] by electrochemiluminescence based ubiquitin profiler panel assay; set-up: scale not given: the % may be the effect or the level left
[26] = tested on: Mus musculus; assay: Toxicity in human RPMI8226 cells xenografted SCID nude mouse assessed as induction of adverse events at 50 mg/kg, po dosed daily for 45 days; assay type: organism-based; settings: in vivo, 1080 h
[27] = organism: Homo sapiens; assay: Inhibition of UBE1/UbcH5c/VHL/HIF-1a (unknown origin) assessed as protein activity at […] by electrochemiluminescence based ubiquitin profiler panel assay; set-up: scale not given: the % may be the effect or the level left
[28] = tested on: OVCAR-3; assay: Antiproliferative activity against human OVCAR3 cells incubated for 48 hrs by SRB assay; assay type: functional; settings: OVCAR-3, 48 h
[29] = tested on: ASPC1; assay: Antiproliferative activity against human AsPC1 cells incubated for 48 hrs by SRB assay; assay type: functional; settings: ASPC1, 48 h
[30] = tested on: HCT-116; assay: Antiproliferative activity against human HCT116 cells incubated for 48 hrs by SRB assay; assay type: functional; settings: HCT-116, 48 h
[31] = tested on: MCF7; assay: Antiproliferative activity against human MCF7 cells incubated for 48 hrs by SRB assay; assay type: functional; settings: MCF7, 48 h
[32] = tested on: KB; assay: Antiproliferative activity against human KB cells incubated for 48 hrs by SRB assay; assay type: functional

With `O=C(Nc1ccncc1)c1ccc(CNC2=C(Cl)C(=O)c3ccccc3C2=O)cc1` the Activity [1] was “Active”, the Activity [2] was 71% and the GI50 [3] was 210 nM. For the same molecule, the GI50 [4] was 2700 nM, the Activity [5] was 101% and the GI50 [6] was 3.6 µM. It also gave a GI50 at 48 h [7] of 30 µM, a GI50 [8] of over 5 µM and an Activity [9] of 65%. It also gave an Activity [10] of 92%, a GI50 [11] of 890 nM and a GI50 [12] of 1400 nM. The inhibition in vivo at 50 mg/kg [13] was 100%, the inhibition [14] was “Dose-dependent effect” and the GI50 [15] was 1400 nM. It also gave an Activity [16] of 95%, an Activity [17] of 86% and a GI50 [18] of 3.5 µM. It also gave a GI50 [19] of 2900 nM, an Activity [20] of 100% and a GI50 [21] of 1700 nM. For the same molecule, the GI50 [22] was 2800 nM, the GI50 at 48 h [23] was 6.3 µM and the GI50 at 48 h [24] was 16 µM. For the same molecule, the Activity [25] was 105%, the Activity [26] was “Non-Toxic” and the Activity [27] was 100%. It also gave a GI50 [28] of 1900 nM, a GI50 [29] of 4.6 µM and a GI50 [30] of 4.3 µM. The GI50 [31] was 900 nM and the GI50 [32] was 4 µM.
